According to US7691874B2, “Neuroprotective properties of dextrorotatory morphinans” (priority 2004, dated 2010):

How the values were obtained:
MPTP-treated mice [1] = assay: MPTP-induced loss of nigral TH-IR with CB1 agonist/antagonist and HM; format: in vivo; details: combined with HM 20 mg/kg i.p.
Description: CB1 agonist or antagonist was administered 45 min before every MPTP, while HM was injected 30 min before every MPTP (20 mg/kg, i.p./day×7). Compounds were administered for 7 days post-final MPTP.

LPS-treated mice [2] = assay: LPS-induced mortality with CB1 agonist/antagonist and HM; format: in vivo
LPS-treated mice [3] = assay: LPS-induced loss of nigral TH-IR with CB1 agonist/antagonist and HM; format: in vivo
Description: Mortality was observed by 2 weeks after bilateral LPS intrastriatal injection (one side: 2 μg×2).

cocaine-treated mice [4] = assay: Cocaine-induced conditioned place preference with CB1 modulation
Description: (§1) The control mice received an i.p. injection of saline just before entering the white or black compartment. Cocaine or MA dissolved in saline was administered immediately before the mice were placed in the white compartment. To test the effect of cocaine alone or MA alone or in combination with exemplified morphinans (DM, HM, AM, CM or DF), each morphinan was administered 2 hr before cocaine or saline injection.
(§2) On day 1, the mice were pre-exposed to the test apparatus for 5 min. The guillotine doors were raised and the mice were allowed to move freely between the two compartments. On day 2, the time each mouse spent in each compartment was recorded for 15 min. On days 3, 5, 7, 9, 11, and 13, the mice were injected with cocaine before being confined to the white compartment, the non-preferred side, for 20 min. On days 4, 6, 8, 10, and 12, the mice were injected with saline before being confined to the black compartment, the preferred side, for 20 min. On day 14, the guillotine doors were raised. The mice were initially placed in the tunnel and the time spent by the mice in the two compartments was recorded for 15 min. The scores were calculated from the differences in the time spent in the white compartment in the testing and pre-testing phases.

cocaine-treated mice [5] = assay: Cocaine-induced behavioural sensitization with CB1 modulation
MA-treated mice [6] = assay: MA-induced behavioural sensitization
Description: Morphinans (20 mg/kg, i.p.) were administered last 3 days of wash-out period.

MA-treated mice [7] = assay: MA-induced conditioned place preference with CB1 modulation
Description: as §1, §2

MA-treated mice [8] = assay: MA-induced loss of nigral TH-IR with CB1 agonist/antagonist and HM
Description: Compounds were administered 3 days before and after MA injection.

MPTP-treated mice [9] = assay: MPTP model, HM versus L-dopa/carbidopa: locomotor activity; format: in vivo; details: HM 24 mg/kg i.p., L-dopa 200 mg/kg p.o., carbidopa 20 mg/kg p.o., 2 weeks before MPTP
Description: FIGS. 20A-20B show effects of carbidopa, L-dopa, carbidopa+L-dopa and HM on the changes in locomotor activity (A) and locomotor pattern (B) induced by MPTP in mice.
A prescription drug for treating Parkinsonian patients is L-dopa or carbidopa plus L-dopa. Thus, the neuroprotective effects of HM was compared with L-dopa, carbidopa, or carbidopa plus L-dopa. […] Locomotor activity was examined for 60 min after final treatment of MPTP. Mice were sacrificed at 24 h after final MPTP administration. HM (24 mg/kg, i.p.), L-dopa (200 mg/kg, p.o.) with or without carbidopa (20 mg/kg, p.o.) was administered for 2 weeks before first MPTP challenge.

LPS-treated mice [10] = assay: LPS model, HM versus L-dopa/carbidopa: mortality; format: in vivo; details: intrastriatal LPS 2 μg x 4/head; 2 weeks
Description: Mortality was observed by 2 weeks after LPS injection. *P<0.01 vs. Saline+LPS (x^2-test).
The neuroprotective effect of HM was compared with L-dopa, carbidopa, or carbidopa plus L-dopa in response to dopaminergic damage induced by LPS. Intrastriatal injection of LPS (2 μg×4/head) produced high mortality (ten animals died out of twelve animals in the 2 weeks after LPS administration).

LPS-treated mice [11] = assay: LPS model, HM versus L-dopa/carbidopa: locomotor activity; format: in vivo; details: 3 weeks after LPS
Description: Locomotor activity was examined for 60 min at 3 weeks after LPS treatment. LPS-induced significant reduction (P<0.01 vs. saline treatment) in locomotor activity was attenuated by L-dopa (P<0.05), carbidopa+L-dopa (P<0.05) or HM (P<0.01) (FIGS. 24 and 25).

LPS-treated mice [12] = assay: LPS model, HM versus L-dopa/carbidopa: nigral TH-IR; details: mouse, in vivo
Excerpt: FIG. 27 show effects of carbidopa, L-dopa, carbidopa+L-dopa and HM on the nigral tyrosine hydroxylase-like immunoreactivity (TH-IR) of the mice treated with LPS.

LPS-treated mice [13] = assay: LPS model, HM versus L-dopa/carbidopa: microglia F4/80-like immunoreactivity; format: in vivo; details: substantia nigra
MA-treated mice [14] = assay: MA model, HM versus L-dopa/carbidopa: hyperthermia; format: in vivo; details: MA 7.5 mg/kg i.p. x 4
Description: FIGS. 31A-31B show effect of drugs on the MA-induced hyperthermia. Mice received MA injections as 2 hrs' time interval under the ambient temperature of 22.0±0.5° C.
Experimental paradigm for MA with or without compounds is in FIG. 30. Treatment with MA (7.5 mg/kg, i.p.×four times as two hour time interval) produces hyperthermia (P<0.01).

MA-treated mice [15] = assay: MA model, HM versus L-dopa/carbidopa: locomotor activity; format: in vivo; details: 3 days after MA

CCCCC/C=C\C/C=C\C/C=C\C/C=C\CCCC(=O)NCCCl [ACEA, arachidonyl-2-chloroethylamide]
effect on MPTP-induced loss in TH-IR when combined with HM / on HM's action (MPTP-treated mice [1]): counteracted HM's neuroprotective action | effect on HM-induced protective (anti-mortal) effect (LPS-treated mice [2]; combined with HM 20 mg/kg): reversed HM-induced protective (anti-mortal) effect | effect on LPS-induced mortality (LPS-treated mice [2]; given alone: HM 20, ACEA 2, AM-251 0.3 mg/kg, 2 weeks after bilateral intrastriatal LPS): Neither AM-251 nor ACEA significantly changed LPS-induced mortality | effect on LPS-induced loss in TH-IR when combined with HM / on HM's effect (LPS-treated mice [3]; combined with HM): counteracted HM's protective effect | effect on LPS-induced reduction in nigral TH-IR (LPS-treated mice [3]; given alone): did not alter LPS-induced reduction in TH-IR | CPP response of the compound itself (cocaine-treated mice [4]; AM 251 0.3, HM 20, ACEA 2 mg/kg, no cocaine): showed CPP effects | effect on cocaine-induced CPP (cocaine-treated mice [4]; cocaine 10 mg/kg): did not alter CPP effects by cocaine | effect on HM's effect in response to cocaine-induced CPP (cocaine-treated mice [4]; combined with HM 20 mg/kg): appears to counteract the cocaine-induced CPP | behavioural effects of the compound itself (cocaine-treated mice [5]; AM 251 0.3, ACEA 2, HM 20 mg/kg, no cocaine): Neither saline-, AM 251 (0.3 mg/kg)-, ACEA (2 mg/kg)-treated nor HM (20 mg/kg)-treated animals showed any specific behavioural effects | effect on cocaine-induced behavioural sensitization (cocaine-treated mice [5]; cocaine 10 mg/kg/day i.p. x 7, challenge one month later): Neither ACEA nor AM 251 alter behavioural sensitization by cocaine | effect on HM's effect in response to cocaine-induced sensitization (cocaine-treated mice [5]; combined with HM): Neither ACEA nor AM 251 significantly alter HM's effect | behavioural effects of the compound itself (MA-treated mice [6]; AM 251 0.3, ACEA 2, HM 20 mg/kg, no MA (Ex. 3.14)): Neither saline-, AM 251 (0.3 mg/kg)-, ACEA (2 mg/kg)-treated nor HM (20 mg/kg)-treated animals showed any behavioural effects | effect on MA-induced behavioural sensitization (CB1 modulation study) (MA-treated mice [6]; MA 1 mg/kg i.p./day x 7, challenge one week later (Ex. 3.14)): Neither ACEA nor AM 251 influenced behavioural sensitization by cocaine | effect on HM's effect on MA-induced sensitization (MA-treated mice [6]; combined with HM): significantly reversed HM's effect | CPP response of the compound itself (MA-treated mice [7]; AM 251 0.3, HM 20, ACEA 2 mg/kg i.p., no MA): showed CPP effects | effect on HM's effect in response to MA-induced CPP (MA-treated mice [7]; combined with HM): significantly counteracted | effect on MA-induced CPP (MA-treated mice [7]; mouse, in vivo): did not alter CPP effects by MA | effect on MA-induced reduction in TH-IR when combined with HM / on HM's effect (MA-treated mice [8]; combined with HM 20 mg/kg): reversed HM's protective effect | effect on MA-induced reduction in nigral TH-IR (MA-treated mice [8]; given alone): did not alter MA-induced reduction in TH-IR

N[C@@H](Cc1ccc(O)c(O)c1)C(=O)O [L-dopa]
effect on MPTP-induced decrease in locomotor activity (MPTP-treated mice [9]): appeared to increase | effect on mortality induced by LPS (LPS-treated mice [10]): appears to attenuate mortality induced by LPS | effect on LPS-induced reduction in locomotor activity (LPS-treated mice [11]): attenuated | effect on LPS-induced loss in nigral TH-IR (LPS-treated mice [12]): significantly attenuated | effect on LPS-induced increase in F4/80-like immunoreactivity (microglia) (LPS-treated mice [13]): significantly attenuated | effect on MA-induced hyperthermia (MA-treated mice [14]): significantly attenenuated | effect on MA-induced reduction in locomotor activity (MA-treated mice [15]): significantly enhanced
